Values joined by “and” are separate entries in the source; they are usually repeats but may differ in a detail not shown here. Equal entries are not always repeated.
Tests used:
Format in all cases: in vivo
[1] = system: Cucurbit Leaf Beetle (Aulacophora femoralis); assay: Cucurbit leaf beetle (Aulacophora femoralis) cucumber leaf dip test; details: after 7 days
Method in brief: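 Cucumber leaves dipped in compound formulated with DMF and polyoxyethylene alkyl phenyl ether, diluted in water, with ammonium salt or ammonium salt plus penetration enhancer at 1000 ppm added if necessary; dried leaves placed on sterilized soil with five second-instar larvae. Kept at 25° C; larval mortality counted after 7 days.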

[2] = system: Two-Spotted Spider Mite (Tetranychus urticae); assay: Two-spotted spider mite (Tetranychus urticae) spray test on kidney bean; details: after 7 days
Method in brief: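 Kidney bean plants at the two-leaf stage carried 50-100 adult mites and were sprayed one day later with compound in DMF/polyoxyethylene alkyl phenyl ether diluted in water. Ammonium salt and penetration enhancer at 1000 ppm were added if needed. Acaricidal activity (% mites killed) was scored after 7 days in a greenhouse.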

[3] = system: Tobacco Cutworm (Spodoptera litura) Larvae; assay: Tobacco cutworm (Spodoptera litura) larvae, sweet potato leaf dip test; details: dead larvae after 7 days
Protocol: (§1) Unless not mentioned otherwise, the test solutions were prepared as follows:
(§2) Solvent: 3 parts by weight Dimethylformamide
(§3) Emulsifier: 1 part by weight Polyoxyethylene alkyl phenyl ether
(§4) In order to make an appropriate formulation of an active compound, 1 part by weight of the active compound is mixed with the above mentioned amount of solvent and emulsifier and the mixture is diluted with water to a prescribed concentration. Ammonium salt or ammonium salt and penetration enhancer in a dosage of 1000 ppm are added to the desired concentration if necessary.
Leaves of sweet potato were immersed in the test solution at the appropriate concentration, and the leaves were dried in air. The leaves were then placed in a petri dish having a diameter of 9 cm, and ten Spodoptera litura at third instar larvae were released therein. The petri dishes were placed in a temperature-controlled chamber at 25° C. After 2 days and 4 days more sweet potato leaves were added. After 7 days, the number of dead larvae was counted to calculate the insecticidal activity. An insecticidal activity of 100% means that all larvae were killed, whereas an insecticidal activity of 0% means that no larva was killed. In the current test, the results of two petri dishes for each treatment were averaged.

Thrips palmi = Thrips palmi spray test (THRIPL); details: after 6 days
Protocol: as §1, §2, §3, §4
The compound solutions are sprayed to a cucumber seedling (Cucumis sativus). After drying, the treated plant is placed in a plastic stand. About 100 thrips-eggs (Thrips palmi) on a piece of filter paper are attached to the plant and covered with a cage to keep 100% humidity. The plant is kept in a room at 23° C. After 6 days activity in % is evaluated by feeding damage degree. An insecticidal activity of 100 means that there was no feeding damage, whereas an insecticidal activity of 0% means that there is no difference to the untreated control.

[4] = system: Larvae of Spodoptera litura; assay: Larvae of Spodoptera litura, method using artificial feeds; details: artificial feed, after 7 days
Method in brief: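 Compound formulated in dimethylformamide with polyoxyethylene alkyl phenyl ether emulsifier, water-diluted and poured onto artificial diet. Five 3rd-instar Spodoptera litura larvae per cup, held at 25° C and 50-60% humidity. Mortality after 7 days expressed as pesticidal ratio.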

Ctenocephalides felis = assay: Test against Ctenocephalides felis (CTECFE), blood feeding; details: application rate 100 ppm in cattle blood; after 2 days
Protocol: Solvent: dimethyl sulfoxide
To produce a suitable preparation of active compound, 10 mg of active compound are dissolved in 0.5 ml solvent, and the concentrate is diluted with cattle blood to the desired concentration. Approximately 20 adult unfed (Ctenocepahlides felis) are placed in flea chambers. The blood chamber, sealed with parafilm on the bottom, are filled with cattle blood supplied with compound solution and placed on top of the flea chamber, so that the fleas are able to suck the blood. The blood chamber is heated to 37° C. whereas the flea chamber is kept at room temperature.
After 2 days mortality in % is determined. 100% means that all the fleas have been killed; 0% means that none of the fleas have been killed.

[5] = active compound concentration 20 ppm
[6] = active compound concentration 4 ppm
[7] = active compound concentration 100 ppm

Compound | insecticidal activity [1, 5] [%] | acaricidal activity [2, 6] [%] | insecticidal activity [3, 6] [%] | insecticidal activity (by feeding damage degree) (Thrips palmi; [5]) [%] | acaricidal activity [2, 5] [%] | further results
CCC(=O)NCc1ccc(N2CCC(c3cc(Cl)c(Cl)c(Cl)c3)(C(F)(F)F)C2O)nc1Cl (stereo not shown) [A3-101] | 100 | 100 | 100 | 98 | – | –
O=C(NCc1cnc(N2CCC(c3cc(Cl)c(Cl)c(Cl)c3)(C(F)(F)F)C2O)cc1C(F)(F)F)C1CC1 (stereo not shown) [A5-16] | 100 | – | 100 | – | 100 | insecticidal activity (by feeding damage degree) (Thrips palmi; [7]): 100%
O=C(CC(F)(F)F)NCc1ccc(N2CCC(c3cc(Cl)cc(Cl)c3)(C(F)(F)F)C2O)cc1Br (mixture of isomers) [A1-112] | 100 | 100 | 100 | 98 | – | –
O=C(NCc1cnc(N2CCC(c3cc(Cl)cc(Cl)c3)(C(F)(F)F)C2O)nc1C(F)(F)F)C1CC1 (stereo not shown) [A4-5] | 100 | 100 | 100 | 90 | – | –
CC(=O)NCc1ccc(N2CCC(c3cc(Cl)c(Cl)c(C(F)(F)F)c3)(C(F)(F)F)C2O)cc1C(F)(F)F (stereo not shown) [A1-348] | 100 | – | 100 | – | 100 | –
CCC(=O)NCc1ccc(N2CCC(c3cc(C(F)(F)F)cc(C(F)(F)F)c3)(C(F)(F)F)C2O)cc1CC (mixture of isomers) [A1-195] | 100 | 100 | 100 | – | – | –
O=C(NCc1ccc(N2CCC(c3cc(Cl)c(Cl)c(C(F)(F)F)c3)(C(F)(F)F)C2O)cc1C(F)(F)F)C1CC1 (stereo not shown) [A1-352] | 100 | – | 100 | – | 100 | –
CS(=O)(=O)CC(=O)NCc1cnc(N2CCC(c3cc(Cl)c(Cl)c(Cl)c3)(C(F)(F)F)C2O)cc1C(F)(F)F (stereo not shown) [A5-22] | 100 | – | 100 | – | 100 | insecticidal activity (by feeding damage degree) (Thrips palmi; [7]): 98%
CCC(=O)NCc1cnc(N2CCC(c3cc(Cl)c(F)c(Cl)c3F)(C(F)(F)F)C2O)cc1C(F)(F)F (stereo not shown) [A5-79] | – | 100 | 100 | 90 | – | –
O=C(NCc1ccc(N2CCC(c3cc(C(F)(F)F)cc(C(F)(F)F)c3)(C(F)(F)F)C2O)nc1C(F)(F)F)C1CC1 (stereo not shown) [A3-27] | 100 | – | – | – | 100 | insecticidal activity [3, 5]: 100%; insecticidal activity (pesticidal ratio) [4, 5]: 100%
O=C(CC(F)(F)F)NCc1ccc(N2CCC(c3cc(Cl)cc(Cl)c3)(C(F)(F)F)C2O)cc1F (mixture of isomers) [A1-101] | 100 | 100 | 80 | – | – | –
CS(=O)(=O)CC(=O)NCc1cnc(N2CCC(c3cc(Cl)cc(Cl)c3)(C(F)(F)F)C2O)nc1C(F)(F)F (stereo not shown) [A4-11] | – | 100 | 100 | 90 | – | –
CC(=O)NCc1cnc(N2CCC(c3cc(Cl)c(Cl)c(Cl)c3)(C(F)(F)F)C2O)nc1C(F)(F)F (stereo not shown) [A4-12] | – | 100 | 100 | 90 | – | –
CCC(=O)NCc1cnc(N2CCC(c3cc(Cl)c(F)c(Cl)c3F)(C(F)(F)F)C2O)nc1C(F)(F)F (stereo not shown) [A4-112] | 100 | 100 | 100 | 98 | – | –
CCC(=O)NCc1ccc(N2CCC(c3cc(Cl)c(Cl)c(C(F)(F)F)c3)(C(F)(F)F)C2O)cc1C(F)(F)F (stereo not shown) [A1-349] | 100 | – | 100 | – | 100 | –
O=C(NCc1ccc(N2CCC(c3cc(Cl)c(Cl)c(Cl)c3)(C(F)(F)F)C2O)nc1C(F)(F)F)C1CC1 (stereo not shown) [A3-16] | 100 | – | – | – | 100 | insecticidal activity [3, 5]: 100%; insecticidal activity (pesticidal ratio) [4, 5]: 100%
CC(NC(=O)C1CC1)c1ccc(N2CC(c3cc(C(F)(F)F)cc(C(F)(F)F)c3)(C(F)(F)F)CC2=O)cc1 (stereo not shown) [C2-27-b] | 100 | – | – | – | 100 | insecticidal activity [3, 5]: 100%; insecticidal activity (pesticidal ratio) [4, 5]: 100%
CCC(=O)NCc1ccc(N2CCC(c3cc(Cl)c(Cl)c(Cl)c3)(C(F)(F)F)C2O)cc1 (stereo not shown) [A1-384] | 100 | 98 | 100 | 90 | – | –
CC(=O)NCc1cnc(N2CCC(c3cc(Cl)c(F)c(Cl)c3F)(C(F)(F)F)C2O)cc1C(F)(F)F (stereo not shown) [A5-78] | 100 | 100 | 100 | – | – | –
O=C(CC(F)(F)F)NCc1cnc(N2CCC(c3cc(Cl)cc(Cl)c3)(C(F)(F)F)C2O)nc1C(F)(F)F (stereo not shown) [A4-7] | 100 | 100 | 100 | 90 | – | –
CCc1nc(N2CCC(c3cc(Cl)c(Cl)c(Cl)c3)(C(F)(F)F)C2O)ccc1CNC(=O)C1CC1 (stereo not shown) [A3-93] | 100 | – | 100 | – | 100 | –
CC(=O)NCc1cnc(N2CCC(c3cc(Cl)c(F)c(Cl)c3F)(C(F)(F)F)C2O)nc1C(F)(F)F (stereo not shown) [A4-111] | 100 | 100 | 100 | – | – | –
CCC(=O)NC(C)c1ccc(N2CCC(c3cc(Cl)c(Cl)c(Cl)c3)(C(F)(F)F)C2O)cc1 (mixture of isomers) [A2-13] | – | – | – | – | 100 | insecticidal activity [3, 5]: 100%; insecticidal activity (pesticidal ratio) [4, 5]: 100%
CC(=O)NCc1ccc(N2CCC(c3cc(Cl)c(F)c(Cl)c3)(C(F)(F)F)C2O)cc1C(F)(F)F (stereo not shown) [A1-271] | – | 100 | 100 | – | – | –
CCC(=O)NCc1cnc(N2CCC(c3cc(Cl)c(Cl)c(Cl)c3)(C(F)(F)F)C2O)cc1C(F)(F)F (stereo not shown) [A5-13] | 100 | – | 100 | – | 100 | acaricidal activity [2, 7]: 98%; insecticidal activity (pesticidal ratio) [4, 6]: 100%; insecticidal activity (by feeding damage degree) (Thrips palmi; [7]): 100% and 90%
O=C(CC(F)(F)F)NCc1cnc(N2CCC(c3cc(Cl)c(Cl)c(Cl)c3)(C(F)(F)F)C2O)cc1C(F)(F)F (stereo not shown) [A5-18] | 100 | – | 100 | – | 100 | activity (mortality) (Ctenocephalides felis): 90%; insecticidal activity (by feeding damage degree) (Thrips palmi; [7]): 100%
CCC(=O)NCc1ccc(N2CCC(c3cc(F)cc(Cl)c3)(C(F)(F)F)C2O)nc1C(F)(F)F (mixture of isomers) [A3-167] | – | – | 80 | – | 90 | –
CCCC(=O)NCc1ccc(N2CCC(c3cc(Cl)c(Cl)c(Cl)c3)(C(F)(F)F)C2O)nc1C(F)(F)F (stereo not shown) [A3-14] | 100 | 100 | – | – | 100 | insecticidal activity [1, 6]: 100%; activity (mortality) (Ctenocephalides felis): 95%; insecticidal activity (pesticidal ratio) [4, 6]: 100%; insecticidal activity (pesticidal ratio) [4, 5]: 100%
O=C(NCc1ccc(N2CCC(c3cc(F)cc(Cl)c3)(C(F)(F)F)C2O)cc1C(F)(F)F)C1CC1 (stereo not shown) [A1-242] | 100 | 100 | 100 | 90 | – | –
CC(=O)NCc1ccc(N2CCC(c3cc(Cl)c(F)c(Cl)c3F)(C(F)(F)F)C2O)nc1C(F)(F)F (mixture of isomers) [A3-210] | 100 | 100 | 100 | – | – | –

Reference: US9375000B2, “Pesticidal arylpyrrolidines” (Bayer Intellectual Property GmbH, priority 2011, dated 2016)
